pEC50: −log10 of the molar value. Starred links: 1 amine or outer side, 2 acyl side, 3 side chain; linkers in the order of their positions; H or OH if unused. Positions of bridges follow the written chain, without caps; N, C: chain ends. Residues, ends and D or L forms follow the SMILES beside them. Groups on a side chain read outwards from the residue. *: point of attachment. C20 diacid = O=C(O)CCCCCCCCCCCCCCCCCCC(=O)*; C18 diacid = O=C(O)CCCCCCCCCCCCCCCCC(=O)*; γGlu = O=C(O)[C@H](CCC(=O)[*:2])N[*:1]; AEEA = NCCOCCOCC(=O)O Some results are limits rather than exact numbers.

The nature of data set [1]: Assay (III) ThT fibrillation assay for physical stability. Format: physicochemical. An excerpt:
ASSAY (III)—ThT Fibrillation Assays for the Assessment of Physical Stability of Protein formulations Low physical stability of a polypeptide may lead to amyloid fibril formation, which is observed as well-ordered, thread-like macromolecular structures in the sample eventually resulting in gel formation. This has traditionally been measured by visual inspection of the sample. However, that kind of measurement is very subjective and depending on the observer. Therefore, the application of a small molecule indicator probe is much more advantageous. Thioflavin T (ThT) is such a probe and has a distinct fluorescence signature when binding to fibrils [Naiki et al. (1989) Anal. Biochem. 177, 244-249; LeVine (1999) Methods. Enzymol. […], 274-284]. The time course for fibril formation can be described by a sigmoidal curve with the following expression [Nielsen et al. (2001) Biochemistry 40, 6036-6046]: [formula] Here, F is the ThT fluorescence at the time t. The constant t0 is the time needed to reach 50% of maximum fluorescence. […] Few of those intermediates nucleate to form a template onto which further intermediates may assembly and the fibrillation proceeds. The lag-time corresponds to the interval in which the critical mass of nucleus is built up and the apparent rate constant is the rate with which the fibril itself is formed. Sample Preparation Samples were prepared freshly before each assay. Each sample composition is described in each example. The pH of the sample was adjusted to the desired value using appropriate amounts of concentrated NaOH and HClO4 or HCl. Thioflavin T was added to the samples from a stock solution in H2O to a final concentration of 1 μM. Sample aliquots of 200 μl were placed in a 96 well microtiter plate (Packard OptiPlate™-96, white polystyrene). Usually, four or eight replica of each sample (corresponding to one test condition) were placed in one column of wells. The plate was sealed with Scotch Pad (Qiagen). Incubation and Fluorescence Measurement Incubation at given temperature, shaking and measurement of the ThT fluorescence emission were done in a Fluoroskan Ascent FL fluorescence platereader or Varioskan platereader (Thermo Labsystems). The temperature was adjusted to 37° C. The orbital shaking was adjusted to 960 rpm with an amplitude of 1 mm in all the presented data. Fluorescence measurement was done using excitation through a 444 nm filter and measurement of emission through a 485 nm filter. Each run was initiated by incubating the plate at the assay temperature for 10 min. The plate was measured every 20 minutes for a desired period of time. Between each measurement, the plate was shaken and heated as described. Data Handling The measurement points were saved in Microsoft Excel format for further processing and curve drawing and fitting was performed using GraphPad Prism. The background emission from ThT in the absence of fibrils was negligible. The data points are typically a mean of four or eight samples and shown with standard deviation error bars. Only data obtained in the same experiment (i.e. samples on the same plate) are presented in the same graph ensuring a relative measure of fibrillation between experiments. The data set may be fitted to Eq. (1). However, since full sigmodial curves in this case are not always achieved during the measurement time, the degree of fibrillation is expressed as ThT fluorescence tabulated as the mean of the samples and shown with the standard deviation at various time points. Measurement of Initial and Final Concentrations The polypeptide concentration in each of the tested formulations were measured both before application in the ThT fibrillation assay (“Initial”) and after completion of the ThT fibrillation (“After ThT assay”). Concentrations were determined by reverse HPLC methods using a pramlintide standard as a reference. Before measurement after completion 150 μl was collected from each of the replica and transferred to an Eppendorf tube. […]

The target of data set [2] is T1, human calcitonin receptor (Homo sapiens, UniProt P30988).
T1 construct: expressed in transfected cells; host or cells: BHK570
T1 sequence (P30988 25-474): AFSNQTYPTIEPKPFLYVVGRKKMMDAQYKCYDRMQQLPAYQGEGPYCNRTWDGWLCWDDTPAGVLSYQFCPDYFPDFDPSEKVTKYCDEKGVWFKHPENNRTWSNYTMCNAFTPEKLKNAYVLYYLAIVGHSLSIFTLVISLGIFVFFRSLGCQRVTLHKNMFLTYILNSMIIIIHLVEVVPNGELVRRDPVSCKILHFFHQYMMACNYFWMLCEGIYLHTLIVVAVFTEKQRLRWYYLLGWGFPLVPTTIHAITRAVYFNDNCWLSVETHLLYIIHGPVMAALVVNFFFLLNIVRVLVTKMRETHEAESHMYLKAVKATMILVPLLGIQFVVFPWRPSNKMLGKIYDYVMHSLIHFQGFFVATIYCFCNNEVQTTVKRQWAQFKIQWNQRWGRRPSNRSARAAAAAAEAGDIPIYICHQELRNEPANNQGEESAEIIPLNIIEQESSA
Description: Assay (II)a functional CRE-luciferase assay, human calcitonin receptor. Format: cell-based. The note with it: Table 7; human calcitonin (CTa) receptor. From the text: 1. Luciferase Assay Outline
Activation of calcitonin and amylin (coexpression of calcitonin receptor and receptor activity modifying proteins (RAMP)) receptors lead to increased intracellular concentrations of cAMP. Consequently, transcription is activated by promoters containing multiple copies of the cAMP response element (CRE). It is thus possible to measure amylin activity by the use of a CRE luciferase reporter gene introduced into BHK cells also expressing calcitonin or amylin receptors.
A BHK570 cell line was stably transfected with the human calcitonin receptor and a CRE-responsive luciferase reporter gene. The cell line was further transfected with RAMP-3, using standard methods. This turns the calcitonin receptor into an amylin 3(a) receptor. Methotrexate, Neomycin, and Hygromycin are selection markers for luciferase, the calcitonin receptor, and RAMP-3, respectively.
To perform activity assays, BHK calcitonin (a) receptor- or amylin 3(a)-receptor/CRE-luc cells were seeded in white 96 well culture plates at a density of about 20.000 cells/well. […] Further, 50 μl/well of standard or sample in assay buffer were added. After 3 hours incubation at 37° C. and 5% CO2, the assay medium with standard or sample were removed and replaced by 100 μl/well PBS. Further, 100 μl/well LucLite™ was added. The plates were sealed and incubated at room temperature for 30 minutes. Finally, luminescence was measured on a TopCounter (Packard) in SPC (single photon counting) mode.

`CC(C)C[C@H](NC(=O)[C@H](CCCNC(=N)N)NC(=O)[C@H](CCC(N)=O)NC(=O)[C@@H](NC(=O)[C@H](C)NC(=O)[C@@H]1CSSC[C@H](NC(=O)[C@H](Cc2c[nH]cn2)NC(=O)CC[C@H](NC(=O)CCCCCCCCCCCCCCCCCCC(=O)O)C(=O)O)C(=O)N[C@@H](CC(N)=O)C(=O)N[C@@H]([C@@H](C)O)C(=O)N[C@@H](C)C(=O)N[C@@H]([C@@H](C)O)C(=O)N1)[C@@H](C)O)C(=O)N[C@@H](C)C(=O)N[C@@H](CCC(=O)O)C(=O)N[C@@H](Cc1ccccc1)C(=O)N[C@@H](CC(C)C)C(=O)N[C@@H](Cc1c[nH]cn1)C(=O)N[C@@H](CCCNC(=N)N)C(=O)N[C@@H](CO)C(=O)N[C@@H](CO)C(=O)N[C@@H](CC(N)=O)C(=O)N[C@@H](CC(N)=O)C(=O)N[C@@H](Cc1ccccc1)C(=O)NCC(=O)N[C@@H](C)C(=O)N1CCC[C@H]1C(=O)N[C@@H](CC(C)C)C(=O)N[C@@H](CO)C(=O)N[C@@H](CO)C(=O)N[C@H](C(=O)N[C@@H](CC(N)=O)C(=O)N[C@H](C(=O)NCC(=O)N[C@@H](CO)C(=O)N[C@@H](CC(N)=O)C(=O)N[C@H](C(=O)N[C@@H](Cc1ccc(O)cc1)C(N)=O)[C@@H](C)O)C(C)C)[C@@H](C)O` [Example 6, N-alpha-[(S)-4-Carboxy-4-(19-carboxynonadecanoylamino)butyryl]-[His1,Glu14,His17,Arg18,Ala25,Pro26,Ser28,Ser29]-pramlintide] ({C20 diacid-γGlu}-HCNTATCATQRLAEFLHRSSNNFGAPLSSTNVGSNTY-NH2; disulfide 2-7 (inferred)): in data set [1] (ThT fibrillation assay), the “ThT pH 4.0 lag time (h)” value is listed as 14 h.

As for `CC[C@H](C)[C@H](NC(=O)[C@@H]1CCCN1C(=O)CNC(=O)[C@H](Cc1ccccc1)NC(=O)[C@H](CC(N)=O)NC(=O)[C@H](CC(N)=O)NC(=O)[C@H](CO)NC(=O)[C@H](CO)NC(=O)[C@H](Cc1c[nH]cn1)NC(=O)[C@H](CCCNC(=N)N)NC(=O)[C@H](CC(C)C)NC(=O)[C@H](Cc1ccccc1)NC(=O)[C@H](CC(N)=O)NC(=O)[C@H](C)NC(=O)[C@H](CC(C)C)NC(=O)[C@H](CCCNC(=N)N)NC(=O)[C@H](CCC(N)=O)NC(=O)[C@@H](NC(=O)[C@H](C)NC(=O)[C@@H]1CSSC[C@H](NC(=O)[C@H](CCCCN)NC(=O)CC[C@H](NC(=O)CCCCCCCCCCCCCCCCCCC(=O)O)C(=O)O)C(=O)N[C@@H](CC(N)=O)C(=O)N[C@@H]([C@@H](C)O)C(=O)N[C@@H](C)C(=O)N[C@@H]([C@@H](C)O)C(=O)N1)[C@@H](C)O)C(=O)N[C@@H](CC(C)C)C(=O)N1CCC[C@H]1C(=O)N1CCC[C@H]1C(=O)N[C@H](C(=O)N[C@@H](CC(N)=O)C(=O)N[C@H](C(=O)NCC(=O)N[C@@H](CO)C(=O)N[C@@H](CC(N)=O)C(=O)N[C@H](C(=O)N1CCC[C@H]1C(N)=O)[C@@H](C)O)C(C)C)[C@@H](C)O` [Example 154, N-alpha-[(S)-4-Carboxy-4-(19-carboxynonadecanoylamino)butyryl]-[Arg17,Pro37]-pramlintide] ({C20 diacid-γGlu}-KCNTATCATQRLANFLRHSSNNFGPILPPTNVGSNTP-NH2; disulfide 2-7 (inferred); C-terminus assumed), in data set [2], the pEC50 is 10.24.

Regarding `CC[C@H](C)[C@H](NC(=O)[C@@H]1CCCN1C(=O)CNC(=O)[C@H](Cc1ccccc1)NC(=O)[C@H](CC(N)=O)NC(=O)[C@H](CCCCNC(=O)COCCOCCNC(=O)COCCOCCNC(=O)CC[C@H](NC(=O)CCCCCCCCCCCCCCCCC(=O)O)C(=O)O)NC(=O)[C@H](CO)NC(=O)[C@H](CO)NC(=O)[C@H](Cc1c[nH]cn1)NC(=O)[C@H](Cc1c[nH]cn1)NC(=O)[C@H](CC(C)C)NC(=O)[C@H](Cc1ccccc1)NC(=O)[C@H](CCC(=O)O)NC(=O)[C@H](C)NC(=O)[C@H](CC(C)C)NC(=O)[C@H](CCCNC(=N)N)NC(=O)[C@H](CCC(N)=O)NC(=O)[C@@H](NC(=O)[C@H](C)NC(=O)[C@@H]1CSSC[C@H](NC(=O)[C@@H](N)CCCCN)C(=O)N[C@@H](CC(N)=O)C(=O)N[C@@H]([C@@H](C)O)C(=O)N[C@@H](C)C(=O)N[C@@H]([C@@H](C)O)C(=O)N1)[C@@H](C)O)C(=O)N[C@@H](CC(C)C)C(=O)N1CCC[C@H]1C(=O)N1CCC[C@H]1C(=O)N[C@H](C(=O)N[C@@H](CC(N)=O)C(=O)N[C@H](C(=O)NCC(=O)N[C@@H](CO)C(=O)N[C@@H](CCC(=O)O)C(=O)N[C@H](C(=O)N[C@@H](Cc1ccc(O)cc1)C(N)=O)[C@@H](C)O)C(C)C)[C@@H](C)O` [Example 74, N-epsilon21-[2-(2-{2-[2-(2-{2-[(S)-4-Carboxy-4-(17-carboxyheptadecanoylamino)butyrylamino]ethoxy}ethoxy)acetylamino]ethoxy}ethoxy)acetyl]-[Glu14,His17,Lys21,Glu35]-pramlintide] (H-KCNTATCATQRLAEFLHHSSK([AEEA-AEEA-γGlu-C18 diacid])NFGPILPPTNVGSETY-NH2; disulfide 2-7 (inferred)), the “ThT pH 4.0 lag time” value in data set [1] (Table 8), in data set [1] (Table 9) and in data set [1] (ThT fibrillation assay) was greater than 45 h in each case. Moreover, the “ThT pH 4.0 lag time (h)” value in data set [1] (ThT fibrillation assay) is greater than 45 h.

In general, pEC50 refers to the EC50 on a negative log10 scale, so that one unit is a factor of ten.

Values taken from patent US8722849B2, “Polypeptides” (Novo Nordisk A/S, priority 2011, dated 2014).
